{"source": "patent US20250189532A1", "about": "“1,6-DIYNE COMPOUND, ITS PREPARATION METHOD, AND PRODUCTS OBTAINED USING 1,6-DIYNE COMPOUND AS RAW MATERIAL AND THEIR APPLICATIONS” (Fujian Institute of Research on the Structure of Matter, …, priority 2022, published 2025)", "assay_type_in_all_cases": "cell-based", "key": {"respiratory chain [1]": {"tested_on": "respiratory chain", "experiment": "Cell silencing experiment 1: cytc-290 siRNA, live cell imaging with MP-1", "method": "Cells are cultured in imaging culture dishes for 6 h and then treated with cytc-290 (designed silent siRNA) or nontargeting RNA. After a certain period of action, live cell imaging is performed under a confocal laser scanning microscope. After 12 hours of ctyc-290 treatment, Hoechst 33342 and MTG staining are good, but about 10% of the cells could not be labeled by MP-1. About 30% of the cells could not be labeled by MP-1 after 18 hours of treatment with ctyc-290. As shown in FIGS. 8A-8E, in contrast, the staining effect of MP-1 in the control group using non-targeted RNA is still good."}, "respiratory chain [2]": {"tested_on": "respiratory chain", "experiment": "Cell silencing experiment 2: cytc-436 siRNA, live cell imaging with MP-1", "method": "The cells are cultured in the imaging culture dish for 6 h, and then treated with cytc-436 (designed silent siRNA) or non-targeting RNA for a certain period of time, and then live cell imaging is performed under a confocal laser scanning microscope. After 6 hours of ctyc-436 treatment, Hoechst 33342 and MTG staining are good, but about 5% of the cells could not be labeled by MP-1. In contrast, the staining effect of MP-1 in the control group using non-targeting RNA is still good."}, "[3]": {"tested_on": "L929 cells (mouse fibroblasts)", "experiment": "Fluorescent labeling of L292/L929 cells by IM probes (confocal imaging)", "conditions": "30 minutes in the dark", "method": "Cell line: L929 cells (mouse fibroblasts).\nCell culture: Cells are cultured in a CO2 incubator (37° C., 5% CO2) with DMEM medium (penicillin (100 U/mL) and streptomycin (100 μg/mL)).\n(§1) Cell imaging experiment: Cells are cultured on 15 mm grade bottom cell culture dishes. Before labeling the cells with the probe, the culture medium is removed, and the cells are washed twice with Hank's buffer solution to remove the remaining culture medium. Then, 200 μL of probe IM-1 (10 μM) is added to the culture dish, and the cells are incubated in the dark for 30 minutes. The cells are washed twice with Hank's buffer solution to remove any remaining probe, and then 1 mL of Hank's solution is added to the culture dish. The cells are observed under a laser confocal microscope with a 100× objective. The excitation wavelength is 543 nm, and the emission wavelength is 550-600 nm.\nas §1, with “IM-2 (5” for “IM-1 (10”\nas §1, with “IM-3 (2” for “IM-1 (10”, “The cells are observed under a laser confocal microscope with a 100× objective. The excitation wavelength is 543 nm, and the emission wavelength is 550-600 nm.” left out"}, "[4]": {"conditions": "after 12 hours of cytc-290 treatment"}, "[5]": {"conditions": "after 6 hours of cytc-436 treatment"}}}
{"smiles": "CCOc1ccc(-c2nc3ccc(-c4nc5ccc(N6CCN(C)CC6)cc5[nH]4)cc3[nH]2)cc1", "note": "[Hoechst 33342, reference compound]", "values": [{"measurement": "staining", "setting": "respiratory chain [1]; [4]", "value": "good"}, {"measurement": "staining", "setting": "respiratory chain [2]; [5]", "value": "good"}]}
{"smiles": "c1ccc(C2=NCc3cc4ccccc4cc32)cc1", "note": "[IM-1]", "values": [{"measurement": "organelles fluorescently labelled by the probe", "setting": "[3]; probe 10 μM, excitation 543 nm, emission 550-600 nm", "value": "labels the lysosomes and lysosomal autolysosomes in the cells"}]}
{"smiles": "CCCCCCCCCCCCCOc1ccc(C2=NCc3c2cc2ccc(Cl)cc2c3-c2ccccc2)cc1", "note": "[IM-2]", "values": [{"measurement": "organelles fluorescently labelled by the probe", "setting": "[3]; probe 5 μM, excitation 543 nm, emission 550-600 nm", "value": "labels the lysosomes and lysosomal autolysosomes in the cells"}]}
{"smiles": "CCCCCCCCCCCCCOc1ccc(C2=NCc3c2cc2ccc(Cl)cc2c3-c2ccccc2)cc1", "note": "[IM-3]", "values": [{"measurement": "organelles fluorescently labelled by the probe", "setting": "[3]; probe 2 μM, excitation 488 nm, emission 600-650 nm", "value": "labels the lysosomes and lysosomal autolysosomes in the cells"}]}
{"smiles": "C#CCN(C(C#Cc1ccccc1)c1ccccc1)S(=O)(=O)c1ccccc1", "note": "(stereo not shown) [PA-1]", "values": [{"measurement": "cells that could not be labeled by MP-1", "setting": "respiratory chain [1]; [4]", "value": "about 10%"}, {"measurement": "cells that could not be labeled by MP-1", "setting": "respiratory chain [1]; after 18 hours of cytc-290 treatment", "value": "About 30%"}, {"measurement": "staining effect in control group", "setting": "respiratory chain [1]; control group using non-targeted RNA", "value": "still good"}, {"measurement": "cells that could not be labeled by MP-1", "setting": "respiratory chain [2]; [5]", "value": "about 5%"}, {"measurement": "staining effect in control group", "setting": "respiratory chain [2]; control group using non-targeting RNA", "value": "still good"}]}
